These results are taken from patent US12661410B2, “Compounds for targeted degradation of RET” (C4 Therapeutics, Inc., priority 2020, dated 2026).

The target of one assay is T1, RET (658-1114) (Homo sapiens, UniProt P07949).
T1 construct: 658-1114; expressed in transfected cells; host or cells: 293T.144 (293T cells, generated in-house)
T1 sequence (P07949 658-1114): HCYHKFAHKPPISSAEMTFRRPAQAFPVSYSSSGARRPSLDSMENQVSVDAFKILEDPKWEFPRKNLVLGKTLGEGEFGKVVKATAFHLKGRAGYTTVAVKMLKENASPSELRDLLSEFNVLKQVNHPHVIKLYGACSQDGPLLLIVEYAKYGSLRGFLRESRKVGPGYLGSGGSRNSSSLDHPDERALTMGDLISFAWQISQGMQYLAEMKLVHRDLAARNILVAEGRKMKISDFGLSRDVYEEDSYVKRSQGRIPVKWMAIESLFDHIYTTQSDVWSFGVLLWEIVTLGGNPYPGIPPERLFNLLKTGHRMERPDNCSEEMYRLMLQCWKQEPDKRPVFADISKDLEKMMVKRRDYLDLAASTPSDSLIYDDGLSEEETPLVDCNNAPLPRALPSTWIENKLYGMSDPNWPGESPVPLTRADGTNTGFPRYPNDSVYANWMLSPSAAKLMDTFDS
The assay can be described thus: HiBiT-Degradation, RET wild-type degradation assay (Nano-Glo HiBiT Lytic), 293T.144 cells. It is filed as cell-based. To be noted: for DC50 / Emax: 6.0 hours; for DC50: read-out: 293T.144 RET (658-1114) 6.0 hours (DC50); for Emax: read-out: 293T.144 RET (658-1114) 6.0 hours (Emax). Put shortly:
(§1)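 Cells were plated and dosed with an 11-point half-log series (highest 10 μM) in duplicate. After 6 hours they were lysed with HiBiT lytic detection reagent and luminescence measured. DC50 and percent remaining protein (Emax) came from the dose-response curves.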
In general terms: HiBiT is a short tag that completes a luciferase, so light tracks the accessible tagged protein.

The next assay deals with T2, RET(KD: 658-1114 G810R) (Homo sapiens, UniProt P07949, G810R).
T2 construct: 658-1114; expressed in transfected cells; host or cells: 293T.165 (293T cells, generated in-house)
T2 sequence (P07949 658-1114 G810R): T1 sequence (P07949 658-1114) with G153R
In words: HiBiT-Degradation, RET G810R degradation assay (Nano-Glo HiBiT Lytic), 293T.165 cells. The assay is classed as cell-based. To be noted: for Emax / DC50: 6.0 hours; for Emax: % remaining protein, read-out: 293T.165 RET(KD: 658-1114 G810R) 6.0 hours (Emax); for DC50: read-out: 293T.165 RET(KD: 658-1114 G810R) 6.0 hours (DC50). Summed up: as §1

Where [1] appears, read: half-maximal degradation concentration.

Numbering of substitutions follows the chain as printed. Like-named read-outs stand apart in the source and are kept apart here.

As a reminder, the DC50 is the midpoint of the concentration-degradation curve. For orientation: Emax means the size of the effect at its maximum, as opposed to the concentration needed. Regarding `CCC1(C(=O)NC(C)C)CCN(c2ccc(-c3cc(-c4cnn(C5CCN(C(=O)CN6CCC(c7ccc8c(N9CCC(=O)NC9=O)nn(C)c8c7)CC6)CC5)c4)cn4ncc(C#N)c34)cn2)CC1` [Compound 63, 1-[5-[3-cyano-6-[1-[1-[2-[4-[3-(2,4-dioxohexahydropyrimidin-1-yl)-1-methyl-indazol-6-yl]-1-piperidyl]acetyl]-4-piperidyl]pyrazol-4-yl]pyrazolo[1,5-a]pyridin-4-yl]-2-pyridyl]-4-ethyl-N-isopropyl-piperidine-4-carboxamide], at RET (658-1114) (HiBiT-Degradation), the “293T.144 RET (658-1114) 6.0 hours (IP) [nM]” value (“293T.144 RET” for short) is given as “++++ (< 50 nM = ++++)”, the DC50 was under 50 nM and the maximal response (Emax) was under 30%. Besides, the maximum response (Emax) at RET(KD: 658-1114 G810R) was under 30%. Besides, the half-maximal degradation concentration (DC50) on RET(KD: 658-1114 G810R) (setting [1]) is under 100 nM. For the same molecule, at RET(KD: 658-1114 G810R) (HiBiT-Degradation), the “293T.165 RET(KD: 658-1114 G810R) 6.0 hours (Emax)” value is recorded as “++++ (< 30% = ++++)”, the “293T.165 RET(KD: 658-1114 G810R) 6.0 hours (IP) [nM]” value was “++++ (< 50 nM = ++++)” and the DC50 is under 100 nM.
For `COc1cc(N2CCN([C@H]3CC[C@H](n4cc(-c5cn6ncc(C#N)c6c(-c6ccc(N7C[C@@H]8C[C@@](C)(NC(=O)c9ncccc9Cl)C[C@@H]8C7)nc6)n5)cn4)CC3)CC2)c(F)cc1NC1CCC(=O)NC1=O` (stereo partly drawn) [Compound 209, N-[(3aR,6aS)-2-[5-[3-cyano-6-[1-[4-[4-[4-[(2,6-dioxo-3-piperidyl)amino]-2-fluoro-5-methoxy-phenyl]piperazin-1-yl]cyclohexyl]pyrazol-4-yl]pyrazolo[1,5-a]pyrazin-4-yl]-2-pyridyl]-5-methyl-1,3,3a, 4,6,6a-hexahydrocyclopenta[c]pyrrol-5-yl]-3-chloro-pyridine-2-carboxamide], the “293T.144 RET” value on RET (658-1114) is “++++ (<50 nM = ++++)”. The maximum response (Emax) on RET (658-1114) (% remaining protein) and on RET(KD: 658-1114 G810R) was under 30% throughout. Besides, the DC50 at RET (658-1114) (setting [1]) was under 50 nM; on RET(KD: 658-1114 G810R) (setting [1]) it was under 100 nM. Besides, the “293T.165 RET(KD: 658-1114 G810R) 6.0 hours (IP) [nM]” value at RET(KD: 658-1114 G810R) is on record as “++++ (<50 nM = ++++)”.
`N#Cc1cnn2cc(-c3cnn(C4CCN(C(=O)CN5CCC(c6ccc(NC7CCC(=O)NC7=O)cc6F)CC5)CC4)c3)nc(-c3ccc(N4CCN(Cc5ccccn5)CC4)cc3)c12` (centres unmarked) [Compound 61, 6-[1-[1-[2-[4-[4-[(2,6-dioxo-3-piperidyl)amino]-2-fluoro-phenyl]-1-piperidyl]acetyl]-4-piperidyl]pyrazol-4-yl]-4-[4-[4-(2-pyridylmethyl)piperazin-1-yl]phenyl]pyrazolo[1,5-a]pyrazine-3-carbonitrile]: on RET (658-1114) (HiBiT-Degradation), the “293T.144 RET” value is on record as “++++ (< 50 nM = ++++)”, the 50% degradation concentration (DC50) is under 50 nM and the Emax is under 30%. For the same molecule, the maximal response (Emax) on RET(KD: 658-1114 G810R) was under 50%. Further, at RET(KD: 658-1114 G810R) (setting [1]), the 50% degradation concentration (DC50) is under 100 nM. Further, at RET(KD: 658-1114 G810R) (HiBiT-Degradation), the “293T.165 RET(KD: 658-1114 G810R) 6.0 hours (Emax)” value is “+++ (<50% = +++)”, the “293T.165 RET(KD: 658-1114 G810R) 6.0 hours (IP) [nM]” value is recorded as “++++ (< 50 nM = ++++)” and the DC50 was under 100 nM.
Take `N#Cc1cnn2cc(-c3cnn([C@H]4CC[C@H](N5CCN(c6c(F)cc(NC7CCC(=O)NC7=O)cc6F)CC5)CC4)c3)nc(-c3ccc(N4CC[C@H](OCc5ccccn5)C4)nc3)c12` (mixture of isomers) [Compound 211, 6-[1-[4-[4-[4-[(2,6-dioxo-3-piperidyl)amino]-2,6-difluoro-phenyl]piperazin-1-yl]cyclohexyl]pyrazol-4-yl]-4-[6-[rac-(3S)-3-(2-pyridylmethoxy)pyrrolidin-1-yl]-3-pyridyl]pyrazolo[1,5-a]pyrazine-3-carbonitrile]: at RET (658-1114), the “293T.144 RET” value is reported as “++++ (<50 nM = ++++)”. The Emax at RET (658-1114) (% remaining protein) and at RET(KD: 658-1114 G810R) was under 30% throughout. Also, the DC50 at RET (658-1114) (setting [1]) and at RET(KD: 658-1114 G810R) (setting [1]) was under 50 nM in each case. The “293T.165 RET(KD: 658-1114 G810R) 6.0 hours (IP) [nM]” value on RET(KD: 658-1114 G810R) was “++++ (<50 nM = ++++)”.
On to `CCC1(C(=O)NC2CCC2)CCN(c2ccc(-c3nc(-c4cnn(C5CCN([C@@H]6CCN(c7ccc(N[C@@H]8CCC(=O)NC8=O)cc7F)CC6(F)F)CC5)c4)cn4ncc(C#N)c34)cn2)CC1` (single isomer, unassigned) [Compound 192], for which, on RET (658-1114), the “293T.144 RET” value is on record as “++++ (<50 nM = ++++)”. The maximal effect (Emax) on RET (658-1114) (% remaining protein) and at RET(KD: 658-1114 G810R) was under 30% throughout. The half-maximal degradation concentration (DC50) on RET (658-1114) (setting [1]) was under 50 nM; on RET(KD: 658-1114 G810R) (setting [1]) it was under 100 nM. For the same molecule, the “293T.165 RET(KD: 658-1114 G810R) 6.0 hours (IP) [nM]” value on RET(KD: 658-1114 G810R) is recorded as “+++ (<100 nM = +++)”.
On to `CC1(NC(=O)Cc2ccccc2)CCN(c2ccc(-c3cc(-c4ccc(N5CCN(C(=O)CN6CCC(c7ccc(NC8CCC(=O)NC8=O)cc7F)CC6)CC5)cc4)cn4ncc(C#N)c34)cn2)CC1` (centres unmarked) [Compound 23, N-(1-(5-(3-Cyano-6-(4-(4-(2-(4-(4-((2,6-dioxopiperidin-3-yl)amino)-2-fluorophenyl)piperidin-1-yl)acetyl)piperazin-1-yl)phenyl)pyrazolo[1,5-a]pyridin-4-yl)pyridin-2-yl)-4-methylpiperidin-4-yl)-2-phenylacetamide], for which, on RET (658-1114) (HiBiT-Degradation), the “293T.144 RET” value is “++++ (< 50 nM = ++++)”, the 50% degradation concentration (DC50) was under 50 nM and the Emax was under 30%. Also, the Emax on RET(KD: 658-1114 G810R) was under 30%. In addition, at RET(KD: 658-1114 G810R) (setting [1]), the DC50 was under 100 nM. Further, on RET(KD: 658-1114 G810R) (HiBiT-Degradation), the “293T.165 RET(KD: 658-1114 G810R) 6.0 hours (Emax)” value was “++++ (< 30% = ++++)”, the “293T.165 RET(KD: 658-1114 G810R) 6.0 hours (IP) [nM]” value is “+++ (<100 nM = +++)” and the DC50 was under 100 nM.
For `N#Cc1cnn2cc(-c3cnn([C@H]4CC[C@H](CCN5CCC(c6ccc(NC7CCC(=O)NC7=O)cc6F)CC5)CC4)c3)nc(-c3ccc(N4CCN(C(=O)Cc5ccc(F)cn5)CC4)nc3)c12` (some centres unmarked) [Compound 60, 6-[1-[(1r,4r)-4-[2-[4-[4-[(2,6-dioxo-3-piperidyl)amino]-2-fluoro-phenyl]-1-piperidyl]ethyl]cyclohexyl]pyrazol-4-yl]-4-[6-[4-[2-(5-fluoro-2-pyridyl)acetyl]piperazin-1-yl]-3-pyridyl]pyrazolo[1,5-a]pyrazine-3-carbonitrile], at RET (658-1114) (HiBiT-Degradation), the “293T.144 RET” value is reported as “++++ (< 50 nM = ++++)”, the DC50 was under 50 nM and the Emax is under 30%. For the same molecule, the maximal response (Emax) on RET(KD: 658-1114 G810R) was under 30%. On RET(KD: 658-1114 G810R) (setting [1]), the 50% degradation concentration (DC50) was under 50 nM. Moreover, at RET(KD: 658-1114 G810R) (HiBiT-Degradation), the “293T.165 RET(KD: 658-1114 G810R) 6.0 hours (Emax)” value is “++++ (< 30% = ++++)”, the “293T.165 RET(KD: 658-1114 G810R) 6.0 hours (IP) [nM]” value was “++++ (< 50 nM = ++++)” and the half-maximal degradation concentration (DC50) was under 50 nM.
In the case of `CCOc1ccc(CN2[C@@H]3COC[C@H]2CN(c2ccc(-c4nc(-c5cnn([C@H]6CC[C@H](N7CCN(c8c(F)cc(NC9CCC(=O)NC9=O)cc8F)CC7)CC6)c5)cn5ncc(C#N)c45)cn2)C3)cn1` (mixture of isomers) [Compound 212, 6-[1-[4-[4-[4-[(2,6-dioxo-3-piperidyl)amino]-2,6-difluoro-phenyl]piperazin-1-yl]cyclohexyl]pyrazol-4-yl]-4-[6-[rac-(1R,5S)-9-[(6-ethoxy-3-pyridyl)methyl]-3-oxa-7,9-diazabicyclo[3.3.1]nonan-7-yl]-3-pyridyl]pyrazolo[1,5-a]pyrazine-3-carbonitrile], the “293T.144 RET” value on RET (658-1114) was “++++ (<50 nM = ++++)”. Also, the maximal response (Emax) at RET (658-1114) (% remaining protein) and on RET(KD: 658-1114 G810R) was under 30% each time. In addition, the DC50 was under 50 nM on RET (658-1114) (setting [1]) and under 100 nM on RET(KD: 658-1114 G810R) (setting [1]). For the same molecule, the “293T.165 RET(KD: 658-1114 G810R) 6.0 hours (IP) [nM]” value on RET(KD: 658-1114 G810R) is recorded as “+++ (<100 nM = +++)”.
